{
  "source": "paper PMC6934184",
  "about": "“Selective DNA-PKcs inhibition extends the therapeutic index of localized radiotherapy and chemotherapy” (The Journal of Clinical Investigation, 2019)",
  "target": "T1, PIK3CB/PIK3R1 (p110β/p85α) (Homo sapiens, UniProt P42338)",
  "T1 construct": "purchased Thermo Fisher Scientific (Life Technologies) SelectScreen",
  "T1 sequence (P42338 whole entry)": "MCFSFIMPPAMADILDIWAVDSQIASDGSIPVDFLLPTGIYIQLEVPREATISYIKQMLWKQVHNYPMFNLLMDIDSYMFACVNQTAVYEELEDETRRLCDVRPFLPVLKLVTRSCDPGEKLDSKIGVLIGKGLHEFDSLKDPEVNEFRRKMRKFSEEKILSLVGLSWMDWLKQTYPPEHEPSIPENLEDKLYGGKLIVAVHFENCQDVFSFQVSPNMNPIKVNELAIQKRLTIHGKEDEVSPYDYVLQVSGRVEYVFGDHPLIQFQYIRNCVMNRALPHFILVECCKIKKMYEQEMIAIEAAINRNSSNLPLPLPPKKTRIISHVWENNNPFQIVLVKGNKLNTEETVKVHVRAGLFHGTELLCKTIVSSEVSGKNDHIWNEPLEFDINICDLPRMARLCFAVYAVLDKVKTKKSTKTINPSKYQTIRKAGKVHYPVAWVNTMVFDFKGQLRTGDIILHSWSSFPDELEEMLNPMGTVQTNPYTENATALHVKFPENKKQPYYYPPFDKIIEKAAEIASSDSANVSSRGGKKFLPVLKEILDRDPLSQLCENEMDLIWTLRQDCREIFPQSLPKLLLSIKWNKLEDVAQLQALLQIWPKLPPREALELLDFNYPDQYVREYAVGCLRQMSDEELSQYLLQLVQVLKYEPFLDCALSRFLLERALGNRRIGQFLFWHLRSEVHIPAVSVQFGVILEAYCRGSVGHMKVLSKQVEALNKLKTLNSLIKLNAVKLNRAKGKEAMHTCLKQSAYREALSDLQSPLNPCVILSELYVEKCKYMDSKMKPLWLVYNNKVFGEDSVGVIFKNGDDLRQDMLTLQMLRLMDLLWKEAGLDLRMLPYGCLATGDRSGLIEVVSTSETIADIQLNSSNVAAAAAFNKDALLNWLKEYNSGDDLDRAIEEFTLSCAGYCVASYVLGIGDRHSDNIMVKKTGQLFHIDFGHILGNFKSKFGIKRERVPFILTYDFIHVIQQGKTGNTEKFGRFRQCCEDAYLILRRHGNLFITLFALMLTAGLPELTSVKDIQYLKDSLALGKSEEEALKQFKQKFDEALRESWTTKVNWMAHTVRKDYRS",
  "T1 sequence (P27986 whole entry partner)": "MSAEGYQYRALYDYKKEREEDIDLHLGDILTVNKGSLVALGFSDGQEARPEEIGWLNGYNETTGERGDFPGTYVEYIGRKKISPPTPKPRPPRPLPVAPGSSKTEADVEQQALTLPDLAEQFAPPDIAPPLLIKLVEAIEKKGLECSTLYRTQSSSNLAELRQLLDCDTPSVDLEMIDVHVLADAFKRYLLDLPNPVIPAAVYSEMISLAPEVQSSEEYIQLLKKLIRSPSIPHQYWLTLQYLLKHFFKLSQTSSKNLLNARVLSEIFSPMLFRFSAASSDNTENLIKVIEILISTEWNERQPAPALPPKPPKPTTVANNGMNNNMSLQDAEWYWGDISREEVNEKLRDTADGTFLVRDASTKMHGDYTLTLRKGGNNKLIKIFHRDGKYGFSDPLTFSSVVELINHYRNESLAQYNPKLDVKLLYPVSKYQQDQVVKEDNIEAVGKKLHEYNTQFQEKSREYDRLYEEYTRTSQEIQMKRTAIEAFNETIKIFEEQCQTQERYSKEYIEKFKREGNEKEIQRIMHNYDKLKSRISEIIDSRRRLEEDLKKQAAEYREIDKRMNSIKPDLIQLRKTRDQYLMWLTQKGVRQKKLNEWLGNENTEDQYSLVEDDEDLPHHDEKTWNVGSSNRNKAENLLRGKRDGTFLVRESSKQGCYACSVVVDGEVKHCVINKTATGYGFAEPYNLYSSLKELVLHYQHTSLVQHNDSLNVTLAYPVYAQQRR",
  "experiment": "SelectScreen Adapta",
  "assay_type": "biochemical",
  "how_it_was_run": "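SelectScreen broad panel; activity (Z'LYTE, Adapta) plus binding formats. ATP: Km app for CSF1R Z'LYTE; 10 for CAMK1 Adapta. Readout = % per kinase.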",
  "data": [
    {"molecule": "CN(C(=O)CN1CCOCC1)c1ccc2sc3c(-c4cccc5c(=O)cc(N6CC7CCC(C6)O7)oc45)cccc3c2c1", "note": "[NU5455]", "values": [
      {"measurement": "inhibition at 1 µM", "result": -3.8, "unit": "%"}
    ]}
  ]
}
